From patent publication US20100267561A1, “HERBICIDAL PYRIDAZINONE DERIVATIVES” (priority 2007, published 2010)

What was measured:
Type in all cases: in vivo
[1] = system: barnyardgrass (Echinochloa crus-galli); assay: Test A pre-/postemergence plant response
Summary of the method: (§1)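 Ratings run 0–100 (100 = complete control), assigned visually against untreated controls roughly 10 days after treatment in a greenhouse. Compounds, formulated in non-phytotoxic solvent containing surfactant, were applied as a soil-directed preemergence spray and concurrently postemergence to one- to two-leaf plants 2–10 cm tall.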

corn (Zea mays) = assay: Test A pre-/postemergence plant response
Summary of the method: as §1

[2] = system: giant foxtail (Setaria faberi); assay: Test A pre-/postemergence plant response
Summary of the method: as §1

[3] = system: large crabgrass (Digitaria sanguinalis); assay: Test A pre-/postemergence plant response
Summary of the method: as §1

[4] = system: morningglory (Ipomoea coccinea); assay: Test A pre-/postemergence plant response
Summary of the method: as §1

[5] = system: pigweed (Amaranthus retroflexus); assay: Test A pre-/postemergence plant response
Summary of the method: as §1

[6] = system: velvetleaf (Abutilon theophrasti); assay: Test A pre-/postemergence plant response
Summary of the method: as §1

[7] = system: wheat (Triticum aestivum); assay: Test A pre-/postemergence plant response
Summary of the method: as §1

[8] = system: barnyardgrass (Echinochloa crus-galli); assay: Test B flooded paddy test plant response
Summary of the method: (§2)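 Compounds were added directly to paddy water over 2-leaf-stage plants in pots flooded 3 cm above soil, water depth maintained. Visual injury scored against controls after 13 to 15 days in greenhouse, 0 (none) to 100 (complete control); dash indicates no result.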

[9] = system: ducksalad (Heteranthera limosa); assay: Test B flooded paddy test plant response
Summary of the method: as §2

rice (Oryza sativa) = assay: Test B flooded paddy test plant response
Summary of the method: as §2

[10] = system: umbrella sedge (Cyperus difformis); assay: Test B flooded paddy test plant response
Summary of the method: as §2

[11] = Postemergence, 31 g ai/ha, 0 to 100 scale (0 no effect, 100 complete control)
[12] = Postemergence, 125 g ai/ha, 0 to 100 scale, 0 no effect, 100 complete control
[13] = Preemergence, 31 g ai/ha, 0 to 100 scale, 0 is no effect, 100 is complete control
[14] = Preemergence, 125 g ai/ha, 0 to 100 scale (0 no effect, 100 complete control)
[15] = Flood (flooded paddy test), 62 g ai/ha, scale 0 to 100, 0 no effect, 100 complete control
[16] = Flood (flooded paddy test), 125 g ai/ha, scale 0 to 100, 0 no effect, 100 complete control
[17] = Flood (flooded paddy test), 250 g ai/ha, scale 0 to 100, 0 no effect, 100 complete control
[18] = Flood, 31 g ai/ha, scale 0 to 100

`CCc1cc(-c2ccc(Cl)cc2)nn1-c1c(OC(=O)C(C)(C)C)cnn(C)c1=O` [Compound 40] was tested, and the “Plant response rating, Barnyardgrass” value [1, 11] was 100, the “Plant response rating, Barnyardgrass” value [1, 12] was 100 and the “Plant response rating, Barnyardgrass” value [1, 13] was 100. The “Plant response rating, Barnyardgrass” value [1, 14] was 100, the “Plant response rating, Corn” value (corn (Zea mays); [11]) was 90 and the “Plant response rating, Corn” value (corn (Zea mays); [12]) was 100. For the same compound, the “Plant response rating, Corn” value (corn (Zea mays); [13]) was 30, the “Plant response rating, Corn” value (corn (Zea mays); [14]) was 90 and the “Plant response rating, Foxtail, Giant” value [2, 11] was 100. For the same compound, the “Plant response rating, Foxtail, Giant” value [2, 12] was 100, the “Plant response rating, Foxtail, Giant” value [2, 13] was 100 and the “Plant response rating, Foxtail, Giant” value [2, 14] was 100. For the same compound, the “Plant response rating, Crabgrass, Large” value [3, 11] was 70, the “Plant response rating, Crabgrass, Large” value [3, 12] was 100 and the “Plant response rating, Crabgrass, Large” value [3, 13] was 70. The “Plant response rating, Crabgrass, Large” value [3, 14] was 100, the “Plant response rating, Morningglory” value [4, 11] was 0 and the “Plant response rating, Morningglory” value [4, 12] was 0. For the same compound, the “Plant response rating, Morningglory” value [4, 13] was 0, the “Plant response rating, Morningglory” value [4, 14] was 0 and the “Plant response rating, Pigweed” value [5, 11] was 0. For the same compound, the “Plant response rating, Pigweed” value [5, 12] was 0, the “Plant response rating, Pigweed” value [5, 13] was 0 and the “Plant response rating, Velvetleaf” value [6, 11] was 0. The “Plant response rating, Velvetleaf” value [6, 12] was 0, the “Plant response rating, Velvetleaf” value [6, 13] was 0 and the “Plant response rating, Velvetleaf” value [6, 14] was 0. For the same compound, the “Plant response rating, Wheat” value [7, 11] was 70, the “Plant response rating, Wheat” value [7, 12] was 90 and the “Plant response rating, Wheat” value [7, 13] was 50. The “Plant response rating, Wheat” value [7, 14] was 90, the “Plant response rating, Barnyardgrass” value [8, 15] was 85 and the “Plant response rating, Barnyardgrass” value [8, 16] was 100. The “Plant response rating, Barnyardgrass” value [8, 17] was 100, the “Plant response rating, Barnyardgrass” value [8, 18] was 60 and the “Plant response rating, Ducksalad” value [9, 15] was 0. The “Plant response rating, Ducksalad” value [9, 16] was 0, the “Plant response rating, Ducksalad” value [9, 17] was 0 and the “Plant response rating, Ducksalad” value [9, 18] was 0. The “Plant response rating, Rice” value (rice (Oryza sativa); [15]) was 40, the “Plant response rating, Rice” value (rice (Oryza sativa); [16]) was 70 and the “Plant response rating, Rice” value (rice (Oryza sativa); [17]) was 80. The “Plant response rating, Rice” value (rice (Oryza sativa); [18]) was 35, the “Plant response rating, Sedge, Umbrella” value [10, 15] was 0 and the “Plant response rating, Sedge, Umbrella” value [10, 16] was 0. For the same compound, the “Plant response rating, Sedge, Umbrella” value [10, 17] was 0 and the “Plant response rating, Sedge, Umbrella” value [10, 18] was 0.

`CCc1cc(-c2ccc(Cl)cc2)nn1-c1c(OC(=O)OC(C)C)cnn(C)c1=O` [Compound 41] was tested, and the “Plant response rating, Barnyardgrass” value [1, 11] was 80, the “Plant response rating, Barnyardgrass” value [1, 12] was 100 and the “Plant response rating, Barnyardgrass” value [1, 13] was 100. The “Plant response rating, Barnyardgrass” value [1, 14] was 100, the “Plant response rating, Corn” value (corn (Zea mays); [11]) was 60 and the “Plant response rating, Corn” value (corn (Zea mays); [12]) was 90. For the same compound, the “Plant response rating, Corn” value (corn (Zea mays); [13]) was 30, the “Plant response rating, Corn” value (corn (Zea mays); [14]) was 90 and the “Plant response rating, Foxtail, Giant” value [2, 11] was 70. For the same compound, the “Plant response rating, Foxtail, Giant” value [2, 12] was 90, the “Plant response rating, Foxtail, Giant” value [2, 13] was 90 and the “Plant response rating, Foxtail, Giant” value [2, 14] was 100. For the same compound, the “Plant response rating, Crabgrass, Large” value [3, 11] was 20, the “Plant response rating, Crabgrass, Large” value [3, 12] was 90 and the “Plant response rating, Crabgrass, Large” value [3, 13] was 80. The “Plant response rating, Crabgrass, Large” value [3, 14] was 100, the “Plant response rating, Morningglory” value [4, 11] was 0 and the “Plant response rating, Morningglory” value [4, 12] was 0. The “Plant response rating, Morningglory” value [4, 13] was 0, the “Plant response rating, Morningglory” value [4, 14] was 0 and the “Plant response rating, Pigweed” value [5, 11] was 0. For the same compound, the “Plant response rating, Pigweed” value [5, 12] was 0, the “Plant response rating, Pigweed” value [5, 13] was 0 and the “Plant response rating, Pigweed” value [5, 14] was 0. For the same compound, the “Plant response rating, Velvetleaf” value [6, 11] was 0, the “Plant response rating, Velvetleaf” value [6, 12] was 0 and the “Plant response rating, Velvetleaf” value [6, 13] was 0. For the same compound, the “Plant response rating, Velvetleaf” value [6, 14] was 0, the “Plant response rating, Wheat” value [7, 11] was 60 and the “Plant response rating, Wheat” value [7, 12] was 70. For the same compound, the “Plant response rating, Wheat” value [7, 13] was 50, the “Plant response rating, Wheat” value [7, 14] was 80 and the “Plant response rating, Barnyardgrass” value [8, 15] was 75. The “Plant response rating, Barnyardgrass” value [8, 16] was 80, the “Plant response rating, Barnyardgrass” value [8, 17] was 95 and the “Plant response rating, Barnyardgrass” value [8, 18] was 60. For the same compound, the “Plant response rating, Ducksalad” value [9, 15] was 0, the “Plant response rating, Ducksalad” value [9, 16] was 40 and the “Plant response rating, Ducksalad” value [9, 17] was 70. The “Plant response rating, Ducksalad” value [9, 18] was 0, the “Plant response rating, Rice” value (rice (Oryza sativa); [15]) was 20 and the “Plant response rating, Rice” value (rice (Oryza sativa); [16]) was 50. For the same compound, the “Plant response rating, Rice” value (rice (Oryza sativa); [17]) was 80, the “Plant response rating, Rice” value (rice (Oryza sativa); [18]) was 15 and the “Plant response rating, Sedge, Umbrella” value [10, 15] was 0. The “Plant response rating, Sedge, Umbrella” value [10, 16] was 0, the “Plant response rating, Sedge, Umbrella” value [10, 17] was 85 and the “Plant response rating, Sedge, Umbrella” value [10, 18] was 0.

In the case of `Cc1cc(-c2ccc(Cl)cc2)nn1-c1c(OC(=O)c2ccccc2)cnn(C)c1=O` [Compound 48], the “Plant response rating, Barnyardgrass” value [1, 11] is reported as 20, the “Plant response rating, Barnyardgrass” value [1, 12] is reported as 90 and the “Plant response rating, Barnyardgrass” value [1, 13] is reported as 60. The “Plant response rating, Barnyardgrass” value [1, 14] was 100, the “Plant response rating, Corn” value (corn (Zea mays); [11]) was 20 and the “Plant response rating, Corn” value (corn (Zea mays); [12]) was 60. For the same compound, the “Plant response rating, Corn” value (corn (Zea mays); [14]) was 80, the “Plant response rating, Foxtail, Giant” value [2, 11] was 30 and the “Plant response rating, Foxtail, Giant” value [2, 12] was 80. The “Plant response rating, Foxtail, Giant” value [2, 13] was 90, the “Plant response rating, Foxtail, Giant” value [2, 14] was 100 and the “Plant response rating, Crabgrass, Large” value [3, 11] was 20. The “Plant response rating, Crabgrass, Large” value [3, 12] was 80, the “Plant response rating, Crabgrass, Large” value [3, 13] was 60 and the “Plant response rating, Crabgrass, Large” value [3, 14] was 100. For the same compound, the “Plant response rating, Morningglory” value [4, 11] was 0, the “Plant response rating, Morningglory” value [4, 12] was 0 and the “Plant response rating, Morningglory” value [4, 13] was 0. For the same compound, the “Plant response rating, Morningglory” value [4, 14] was 0, the “Plant response rating, Pigweed” value [5, 11] was 20 and the “Plant response rating, Pigweed” value [5, 12] was 30. For the same compound, the “Plant response rating, Pigweed” value [5, 13] was 0, the “Plant response rating, Pigweed” value [5, 14] was 0 and the “Plant response rating, Velvetleaf” value [6, 11] was 20. For the same compound, the “Plant response rating, Velvetleaf” value [6, 12] was 70, the “Plant response rating, Velvetleaf” value [6, 13] was 0 and the “Plant response rating, Velvetleaf” value [6, 14] was 0. For the same compound, the “Plant response rating, Wheat” value [7, 11] was 0, the “Plant response rating, Wheat” value [7, 12] was 60 and the “Plant response rating, Wheat” value [7, 13] was 30. For the same compound, the “Plant response rating, Wheat” value [7, 14] was 80, the “Plant response rating, Barnyardgrass” value [8, 15] was 0 and the “Plant response rating, Barnyardgrass” value [8, 16] was 0. The “Plant response rating, Barnyardgrass” value [8, 17] was 30, the “Plant response rating, Barnyardgrass” value [8, 18] was 0 and the “Plant response rating, Ducksalad” value [9, 15] was 0. For the same compound, the “Plant response rating, Ducksalad” value [9, 16] was 0, the “Plant response rating, Ducksalad” value [9, 17] was 30 and the “Plant response rating, Ducksalad” value [9, 18] was 0. For the same compound, the “Plant response rating, Rice” value (rice (Oryza sativa); [15]) was 0, the “Plant response rating, Rice” value (rice (Oryza sativa); [16]) was 0 and the “Plant response rating, Rice” value (rice (Oryza sativa); [17]) was 0. For the same compound, the “Plant response rating, Rice” value (rice (Oryza sativa); [18]) was 0, the “Plant response rating, Sedge, Umbrella” value [10, 15] was 0 and the “Plant response rating, Sedge, Umbrella” value [10, 16] was 0. The “Plant response rating, Sedge, Umbrella” value [10, 17] was 50 and the “Plant response rating, Sedge, Umbrella” value [10, 18] was 0.
